# Source: patent US7118895B2, “Process for producing aglycon by using diglycosidase and flavor-improved food containing the aglycon and converting agent to be used in the process” (Amano Enzyme Inc., priority 2000, dated 2006)
# Test system: Crude diglycosidase
# Assay: Examination of temperature in the conversion into isoflavone aglycons by diglycosidase using soybean materials
# Format: biochemical, Penicillium multicolor IAM7153
# Set-up: Decomposition efficiency of glycitin family in roasted soy flour / Decomposition efficiency of daidzin family in roasted soy flour / Decomposition efficiency of genistin family in soymilk / Decomposition efficiency of daidzin family in soymilk / Decomposition efficiency of glycitin family in defatted soybean / Decomposition efficiency of daidzin family in defatted soybean: concentration or dose not given beside the values
# Settings: for maximum isolation of aglycons: reaction at 55° C. for 6 hours
# Procedure, shortened: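 Temperature series (30-80° C.) of crude diglycosidase, diluted to 1.88 AU/mL in 20 mM acetate pH 4.0, acting on roasted soy flour, soymilk, defatted soybean or soy protein concentrate. Samples quenched with ethanol after 0-6 h, centrifuged, filtered and analyzed by HPLC for glycosides versus aglycons.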
# [1] = 30 °C, heat treatment of enzyme: no, 0 h
# [2] = 30 °C, heat treatment of enzyme: no, 1 h
# [3] = 30 °C, heat treatment of enzyme: no, 3 h
# [4] = 30 °C, heat treatment of enzyme: no, 6 h
# [5] = 30 °C, heat treatment of enzyme: yes, 6 h
# [6] = 45 °C, heat treatment of enzyme: no, 0 h
# [7] = 45 °C, heat treatment of enzyme: no, 1 h
# [8] = 45 °C, heat treatment of enzyme: no, 3 h
# [9] = 45 °C, heat treatment of enzyme: no, 6 h
# [10] = 45 °C, heat treatment of enzyme: yes, 6 h
# [11] = 55 °C, heat treatment of enzyme: no, 0 h
# [12] = 55 °C, heat treatment of enzyme: no, 1 h
# [13] = 55 °C, heat treatment of enzyme: no, 3 h
# [14] = 55 °C, heat treatment of enzyme: no, 6 h
# [15] = 55 °C, heat treatment of enzyme: yes, 6 h
# [16] = 65 °C, heat treatment of enzyme: no, 0 h
# [17] = 65 °C, heat treatment of enzyme: no, 1 h
# [18] = 65 °C, heat treatment of enzyme: no, 3 h
# [19] = 65 °C, heat treatment of enzyme: no, 6 h
# [20] = 65 °C, heat treatment of enzyme: yes, 6 h
# [21] = 80 °C, heat treatment of enzyme: no, 0 h
# [22] = 80 °C, heat treatment of enzyme: no, 1 h
# [23] = 80 °C, heat treatment of enzyme: no, 3 h
# [24] = 80 °C, heat treatment of enzyme: no, 6 h
# [25] = 80 °C, heat treatment of enzyme: yes, 6 h
structure (smiles),measurement,setting,value
COc1cc2c(=O)c(-c3ccc(O)cc3)coc2cc1O [glycitein],Decomposition efficiency of glycitin family in defatted soybean,"30° C., heat treatment of enzyme no, reaction time 0 h",38.7%
same,Decomposition efficiency of glycitin family in defatted soybean,"30° C., heat treatment of enzyme no, reaction time 1 h",51.7%
same,Decomposition efficiency of glycitin family in defatted soybean,"30° C., heat treatment of enzyme no, reaction time 3 h",55.4%
same,Decomposition efficiency of glycitin family in defatted soybean,"30° C., heat treatment of enzyme no, reaction time 6 h",54.4%
same,Decomposition efficiency of glycitin family in defatted soybean,"30° C., heat treatment of enzyme yes, reaction time 6 h",54.9%
same,Decomposition efficiency of glycitin family in concentrated soybean protein,[1],11.4%
same,Decomposition efficiency of glycitin family in roasted soy flour,[1],10.4%
same,Decomposition efficiency of glycitin family in soymilk,[1],8.1%
same,Decomposition efficiency of glycitin family in concentrated soybean protein,[2],17.5%
same,Decomposition efficiency of glycitin family in roasted soy flour,[2],31.5%
same,Decomposition efficiency of glycitin family in soymilk,[2],49.0%
same,Decomposition efficiency of glycitin family in concentrated soybean protein,[3],26.9%
same,Decomposition efficiency of glycitin family in roasted soy flour,[3],66.8%
same,Decomposition efficiency of glycitin family in soymilk,[3],60.4%
same,Decomposition efficiency of glycitin family in concentrated soybean protein,[4],40.3%
same,Decomposition efficiency of glycitin family in roasted soy flour,[4],80.9%
same,Decomposition efficiency of glycitin family in soymilk,[4],71.6%
same,Decomposition efficiency of glycitin family in concentrated soybean protein,[5],11.3%
same,Decomposition efficiency of glycitin family in roasted soy flour,[5],11.1%
same,Decomposition efficiency of glycitin family in soymilk,[5],7.9%
same,Decomposition efficiency of glycitin family in defatted soybean,"45° C., heat treatment of enzyme no, reaction time 0 h",34.8%
same,Decomposition efficiency of glycitin family in defatted soybean,"45° C., heat treatment of enzyme no, reaction time 1 h",55.7%
same,Decomposition efficiency of glycitin family in defatted soybean,"45° C., heat treatment of enzyme no, reaction time 3 h",55.2%
same,Decomposition efficiency of glycitin family in defatted soybean,"45° C., heat treatment of enzyme no, reaction time 6 h",59.0%
same,Decomposition efficiency of glycitin family in defatted soybean,"45° C., heat treatment of enzyme yes, reaction time 6 h",55.8%
same,Decomposition efficiency of glycitin family in concentrated soybean protein,[6],11.4%
same,Decomposition efficiency of glycitin family in roasted soy flour,[6],10.4%
same,Decomposition efficiency of glycitin family in soymilk,[6],8.2%
same,Decomposition efficiency of glycitin family in concentrated soybean protein,[7],35.2%
same,Decomposition efficiency of glycitin family in roasted soy flour,[7],60.2%
same,Decomposition efficiency of glycitin family in soymilk,[7],53.8%
same,Decomposition efficiency of glycitin family in concentrated soybean protein,[8],49.6%
same,Decomposition efficiency of glycitin family in roasted soy flour,[8],67.4%
same,Decomposition efficiency of glycitin family in soymilk,[8],70.1%
same,Decomposition efficiency of glycitin family in concentrated soybean protein,[9],64.9%
same,Decomposition efficiency of glycitin family in roasted soy flour,[9],85.0%
same,Decomposition efficiency of glycitin family in soymilk,[9],84.7%
same,Decomposition efficiency of glycitin family in concentrated soybean protein,[10],11.3%
same,Decomposition efficiency of glycitin family in roasted soy flour,[10],13.4%
same,Decomposition efficiency of glycitin family in soymilk,[10],7.4%
same,Decomposition efficiency of glycitin family in defatted soybean,"55° C., heat treatment of enzyme no, reaction time 0 h",38.7%
same,Decomposition efficiency of glycitin family in defatted soybean,"55° C., heat treatment of enzyme no, reaction time 1 h",55.2%
same,Decomposition efficiency of glycitin family in defatted soybean,"55° C., heat treatment of enzyme no, reaction time 3 h",57.4%
same,Decomposition efficiency of glycitin family in defatted soybean,"55° C., heat treatment of enzyme no, reaction time 6 h",57.3%
same,Decomposition efficiency of glycitin family in defatted soybean,"55° C., heat treatment of enzyme yes, reaction time 6 h",54.5%
same,Decomposition efficiency of glycitin family in concentrated soybean protein,[11],11.2%
same,Decomposition efficiency of glycitin family in roasted soy flour,[11],10.4%
same,Decomposition efficiency of glycitin family in soymilk,[11],7.6%
same,Decomposition efficiency of glycitin family in concentrated soybean protein,[12],51.4%
same,Decomposition efficiency of glycitin family in roasted soy flour,[12],69.9%
same,Decomposition efficiency of glycitin family in soymilk,[12],60.9%
same,Decomposition efficiency of glycitin family in concentrated soybean protein,[13],69.7%
same,Decomposition efficiency of glycitin family in roasted soy flour,[13],87.9%
same,Decomposition efficiency of glycitin family in soymilk,[13],72.3%
same,Decomposition efficiency of glycitin family in concentrated soybean protein,[14],72.7%
same,Decomposition efficiency of glycitin family in roasted soy flour,[14],94.0%
same,Decomposition efficiency of glycitin family in soymilk,[14],83.5%
same,Decomposition efficiency of glycitin family in concentrated soybean protein,[15],11.3%
same,Decomposition efficiency of glycitin family in roasted soy flour,[15],11.0%
same,Decomposition efficiency of glycitin family in soymilk,[15],6.7%
same,Decomposition efficiency of glycitin family in defatted soybean,"65° C., heat treatment of enzyme no, reaction time 0 h",34.8%
same,Decomposition efficiency of glycitin family in defatted soybean,"65° C., heat treatment of enzyme no, reaction time 1 h",54.7%
same,Decomposition efficiency of glycitin family in defatted soybean,"65° C., heat treatment of enzyme no, reaction time 3 h",57.9%
same,Decomposition efficiency of glycitin family in defatted soybean,"65° C., heat treatment of enzyme no, reaction time 6 h",60.0%
same,Decomposition efficiency of glycitin family in defatted soybean,"65° C., heat treatment of enzyme yes, reaction time 6 h",51.2%
same,Decomposition efficiency of glycitin family in concentrated soybean protein,[16],11.4%
same,Decomposition efficiency of glycitin family in roasted soy flour,[16],10.4%
same,Decomposition efficiency of glycitin family in soymilk,[16],8.1%
same,Decomposition efficiency of glycitin family in concentrated soybean protein,[17],58.6%
same,Decomposition efficiency of glycitin family in roasted soy flour,[17],65.5%
same,Decomposition efficiency of glycitin family in soymilk,[17],57.6%
same,Decomposition efficiency of glycitin family in concentrated soybean protein,[18],64.0%
same,Decomposition efficiency of glycitin family in roasted soy flour,[18],69.0%
same,Decomposition efficiency of glycitin family in soymilk,[18],65.7%
same,Decomposition efficiency of glycitin family in concentrated soybean protein,[19],63.8%
same,Decomposition efficiency of glycitin family in roasted soy flour,[19],71.0%
same,Decomposition efficiency of glycitin family in soymilk,[19],74.5%
same,Decomposition efficiency of glycitin family in concentrated soybean protein,[20],11.4%
same,Decomposition efficiency of glycitin family in roasted soy flour,[20],10.4%
same,Decomposition efficiency of glycitin family in soymilk,[20],7.2%
same,Decomposition efficiency of glycitin family in defatted soybean,"80° C., heat treatment of enzyme no, reaction time 0 h",34.8%
same,Decomposition efficiency of glycitin family in defatted soybean,"80° C., heat treatment of enzyme no, reaction time 1 h",53.9%
same,Decomposition efficiency of glycitin family in defatted soybean,"80° C., heat treatment of enzyme no, reaction time 3 h",55.0%
same,Decomposition efficiency of glycitin family in defatted soybean,"80° C., heat treatment of enzyme no, reaction time 6 h",59.7%
same,Decomposition efficiency of glycitin family in defatted soybean,"80° C., heat treatment of enzyme yes, reaction time 6 h",51.9%
same,Decomposition efficiency of glycitin family in concentrated soybean protein,[21],11.4%
same,Decomposition efficiency of glycitin family in roasted soy flour,[21],10.4%
same,Decomposition efficiency of glycitin family in soymilk,[21],8.2%
same,Decomposition efficiency of glycitin family in concentrated soybean protein,[22],23.8%
same,Decomposition efficiency of glycitin family in roasted soy flour,[22],40.8%
same,Decomposition efficiency of glycitin family in soymilk,[22],45.7%
same,Decomposition efficiency of glycitin family in concentrated soybean protein,[23],23.4%
same,Decomposition efficiency of glycitin family in roasted soy flour,[23],41.1%
same,Decomposition efficiency of glycitin family in soymilk,[23],44.9%
same,Decomposition efficiency of glycitin family in concentrated soybean protein,[24],22.8%
same,Decomposition efficiency of glycitin family in roasted soy flour,[24],30.7%
same,Decomposition efficiency of glycitin family in soymilk,[24],34.4%
same,Decomposition efficiency of glycitin family in concentrated soybean protein,[25],11.4%
same,Decomposition efficiency of glycitin family in roasted soy flour,[25],9.9%
same,Decomposition efficiency of glycitin family in soymilk,[25],9.3%
same,maximum isolation of aglycons,concentrated soybean protein,about 73%
same,maximum isolation of aglycons,defatted soybean,about 57%
same,maximum isolation of aglycons,soy flour,about 94%
same,maximum isolation of aglycons,soymilk,about 84%
